Each molecule was assayed on human MET (assay: MET biochemical kinase assay).
Set-up: concentration or dose not given beside the values
Excerpt: (d) MET Biochemical Kinase Assay
A met biochemical kinase assay may be performed for met generally as described above for other kinases by substituting that or the other kinases. In particular, ELISA plates are coated with goat anti-rabbit Fc antibodies, which are used to capture commercially available (from Santa Cruz Biotechnology) rabbit polyclonal antibodies to the cytoplasmic domain of human MET. […] The chimeric receptors, or MET, from these lysates are captured on the antibody coated plates. After washing away extraneous proteins, test compounds are added and an in vitro kinase assay is performed by addition of an appropriate kinase buffer (containing ATP, divalent metal ions, etc.). Incorporation of phosphate into the captured receptors is detected with an anti-phosphotyrosine antibody conjugate with horse radish peroxidase using TMB as a substrate for calorimetric detection.

In order of falling “Met Kinase % Inhibition” value:
1. O=C1Nc2ccc(CCCl)cc2C1=Cc1cc(Cl)cc(Br)c1O [10727/G04]  94.0%
2. Cc1[nH]c(C=C2C(=O)Nc3ccc(I)cc32)c(Br)c1Br [10717/B11]  91.0%
3. Cc1ccc(C=C2C(=O)Nc3ccc(I)cc32)s1 [10717/B07]  90.0%
4. CNS(=O)(=O)c1ccc2c(c1)C(=Cc1ccc(O)c(Br)c1)C(=O)N2 [10734/D09]  88.0%
5. Cc1cc(C=C2C(=O)Nc3c(Br)cc(Br)cc32)sc1C [10721/A04]  85.0%
6. O=C1Nc2ccc(S(=O)(=O)Nc3ccc(C(F)(F)F)cc3)cc2C1=Cc1cc(O)c2c(c1O)CCCC2 [10726/E07]  84.0%
7. Cc1c(Br)ccc2c1C(=Cc1ccc(O)cc1O)C(=O)N2 [10723/C08]  83.0%
8. CNS(=O)(=O)c1ccc2c(c1)C(=Cc1cc(Br)cc(OC)c1O)C(=O)N2 [10733/D08]  80.0%
9. CCCCN(CCCC)c1ccc(C=C2C(=O)Nc3c(Br)cc(Br)cc32)cc1 [10722/A10]  79.0%
10. O=C1Nc2ccc(S(=O)(=O)Nc3ccc(C(F)(F)F)cc3)cc2C1=Cc1ccc(Br)o1 [10726/E05]  71.0%
11. C=C(C)C1CC=C(C=C2C(=O)Nc3ccc(I)cc32)CC1 (centres unmarked) [10731/B04]  71.0%
12. O=C1Nc2c(Br)cc(Br)cc2C1=Cc1coc2ccc(Cl)cc2c1=O [10730/A06]  61.0%
13. Cc1ccc2occ(C=C3C(=O)Nc4c(Br)cc(Br)cc43)c(=O)c2c1 [10731/A06]  53.0%
14. CCN(CC)c1ccc(C=C2C(=O)Nc3ccc(S(=O)(=O)N4CCOCC4)cc32)cc1 [10727/F02]  52.0%
15. Cc1c(Br)ccc2c1C(=Cc1cc(Cl)c(OCc3ccccc3)c(C(C)(C)C)c1)C(=O)N2 [10732/C10]  43.0%
16. CC(C)(C)c1cc(C=C2C(=O)Nc3ccc(CCCl)cc32)cc([N+](=O)[O-])c1O [10722/G02]  43.0%
17. CNS(=O)(=O)c1ccc2c(c1)C(=Cc1cc(C(C)(C)C)cc(C(C)(C)C)c1O)C(=O)N2 [10723/D11]  42.0%
18. CCc1c(C)[nH]c(C=C2C(=O)Nc3ccc(S(=O)(=O)Nc4ccc(C(F)(F)F)cc4)cc32)c1C [10719/E05]  39.0%
19. CNS(=O)(=O)c1ccc2c(c1)C(=Cc1ccc(N3CCN(C=O)CC3)cc1)C(=O)N2 [10725/D07]  37.0%
20. COc1cc(C=C2C(=O)Nc3ccc(S(=O)(=O)N4CCOCC4)cc32)cc(OC)c1OC [10730/F04]  36.0%
21. O=C1Nc2c(Br)cc(Br)cc2C1=Cc1ccccc1Sc1ccc(Cl)cc1 [10727/A05]  29.0%
22. CCN(CC)c1ccc(C=C2C(=O)Nc3ccc(S(=O)(=O)Nc4ccc(C(F)(F)F)cc4)cc32)cc1 [10727/E02]  28.0%
23. Cc1c(Br)ccc2c1C(=Cc1ccc(N3CCOCC3)cc1)C(=O)N2 [10725/C08]  28.0%
24. COc1ccc2[nH]cc(C=C3C(=O)Nc4ccc(S(=O)(=O)Nc5ccc(C(F)(F)F)cc5)cc43)c2c1 [10731/E09]  27.0%
25. Cc1c(O)ccc(C=C2C(=O)Nc3ccc(CCCl)cc32)c1O [10718/G09]  27.0%
26. Cc1cc(C=C2C(=O)Nc3ccc(S(=O)(=O)N4CCOCC4)cc32)sc1C [10721/F04]  26.0%
27. Cc1c(Br)ccc2c1C(=Cc1cccn1C)C(=O)N2 [10717/C04]  25.0%
28. CCc1cc(CC)c(C=C2C(=O)Nc3ccc(S(=O)(=O)NC)cc32)[nH]1 [10727/D03]  24.0%
29. COc1c(C(C)(C)C)cc(C=C2C(=O)Nc3c(Br)cc(Br)cc32)cc1C(C)(C)C [10733/A04]  24.0%
30. O=C1Nc2ccc(CCCl)cc2C1=Cc1ccc(F)cc1C(F)(F)F [10719/G11]  24.0%
31. CCc1cc(CC)c(C=C2C(=O)Nc3ccc(S(=O)(=O)N4CCOCC4)cc32)[nH]1 [10727/F03]  22.0%
32. CNS(=O)(=O)c1ccc2c(c1)C(=Cc1cccn1C)C(=O)N2 [10717/D04]  21.0%
33. O=C1Nc2ccc(S(=O)(=O)Nc3ccc(C(F)(F)F)cc3)cc2C1=Cc1c(F)cc(F)cc1F [10720/E02]  18.0%
34. CNS(=O)(=O)c1ccc2c(c1)C(=Cc1ccc(Br)cc1)C(=O)N2 [10717/D08]  16.0%
35. CNS(=O)(=O)c1ccc2c(c1)C(=Cc1sccc1Br)C(=O)N2 [10725/D02]  14.0%
36. CSc1ccc(C=C2C(=O)Nc3ccc(S(=O)(=O)Nc4ccc(C(F)(F)F)cc4)cc32)cc1 [10729/E04]  9.8%
37. CNS(=O)(=O)c1ccc2c(c1)C(=Cc1ccc(OC)cc1)C(=O)N2 [10726/D11]  9.6%
38. O=C1Nc2c(Br)cc(Br)cc2C1=Cc1ccc[nH]1 [10717/A09]  9.4%
39. Cc1c(Br)ccc2c1C(=Cc1ccc(F)cc1Cl)C(=O)N2 [10719/C09]  8.9%
40. COc1cccc(OC)c1C=C1C(=O)Nc2ccc(CCCl)cc21 [10728/G03]  8.8%
41. CCn1c2ccccc2c2cc(C=C3C(=O)Nc4ccc(S(=O)(=O)NC)cc43)ccc21 [10731/D02]  8.7%
42. O=C1Nc2ccc(S(=O)(=O)N3CCOCC3)cc2C1=Cc1ccc(F)cc1C(F)(F)F [10719/F11]  8.7%
43. Cn1c(C=C2C(=O)Nc3ccc(CCCl)cc32)nc2ccccc21 [10721/G02]  7.9%
44. Cc1c(Br)ccc2c1C(=Cc1ccc(O)cc1)C(=O)N2 [10719/C07]  7.7%
45. O=C1Nc2ccc(S(=O)(=O)N3CCOCC3)cc2C1=Cc1ccccc1Sc1ccc(Cl)cc1 [10727/F05]  6.0%
46. CC(C)(C)c1cc(C=C2C(=O)Nc3c(Br)cc(Br)cc32)ccc1OCc1ccccc1 [10732/A06]  5.7%
47. COc1ccc(OC)c(C=C2C(=O)Nc3ccc(S(=O)(=O)Nc4ccc(C(F)(F)F)cc4)cc32)c1 [10728/E02]  5.4%
48. Cc1c(Br)ccc2c1C(=Cc1cccn1-c1ccc(Cl)cc1)C(=O)N2 [10724/C09]  5.3%
49. COc1ccc(C=C2C(=O)Nc3ccc(CCCl)cc32)cc1OC [10720/G04]  5.0%
50. Cc1c(Br)ccc2c1C(=Cc1sc3scc(C)c3c1C)C(=O)N2 [10724/C11]  4.9%
51. O=C1Nc2ccc(CCCl)cc2C1=Cc1ccc(F)cc1 [10717/G05]  4.7%
52. COc1c(C)cc(C=C2C(=O)Nc3ccc(Br)c(C)c32)cc1C [10733/C06]  4.1%
53. CCOC(=O)c1cc(C=C2C(=O)Nc3ccc(Br)c(C)c32)oc1C [10718/C06]  3.9%
54. Cc1c(Br)ccc2c1C(=Cc1cc(C(C)(C)C)c(O)c(C(C)(C)C)c1)C(=O)N2 [10721/C11]  3.7%
55. COc1ccc(C=C2C(=O)Nc3ccc(S(=O)(=O)Nc4ccc(C(F)(F)F)cc4)cc32)c(OC)c1 [10719/E04]  3.1%
56. CNS(=O)(=O)c1ccc2c(c1)C(=Cc1ccc(Cl)c([N+](=O)[O-])c1)C(=O)N2 [10718/D08]  2.3%
57. CC(C)(C)c1cc(C=C2C(=O)Nc3ccc(CCCl)cc32)cc(C(C)(C)C)c1OCc1ccccc1 [10733/G05]  1.8%
58. O=C1Nc2ccc(S(=O)(=O)N3CCOCC3)cc2C1=Cc1ncc[nH]1 [10720/F11]  1.6%
59. COc1c(C)cc(C=C2C(=O)Nc3ccc(CCCl)cc32)cc1C [10733/G06]  0.8%
60. CC(C)(C)c1cc(C=C2C(=O)Nc3ccc(CCCl)cc32)cc(C(C)(C)C)c1O [10721/G11]  −0.0%
61. O=C1Nc2ccc(S(=O)(=O)Nc3ccc(C(F)(F)F)cc3)cc2C1=Cc1cccc(Oc2ccccc2)c1 [10729/E06]  −0.7%
62. CC(C)(C)c1cc(C=C2C(=O)Nc3ccc(S(=O)(=O)Nc4ccc(C(F)(F)F)cc4)cc32)ccc1OCc1ccccc1 [10732/E06]  −2.1%
63. Cc1c(Br)ccc2c1C(=Cc1ccc(O)c(C(C)(C)C)c1)C(=O)N2 [10721/C09]  −4.7%
64. Cc1c(Br)ccc2c1C(=Cc1ccc(F)cc1C(F)(F)F)C(=O)N2 [10719/C11]  −5.1%
65. CNS(=O)(=O)c1ccc2c(c1)C(=Cc1cc(C)c(OCc3ccccc3)c(C)c1)C(=O)N2 [10733/D07]  −6.8%
66. COc1cc(OC)c(C=C2C(=O)Nc3c(Br)cc(Br)cc32)c(OC)c1 [10719/A06]  −7.0%
67. COc1ccc(C=C2C(=O)Nc3ccc(CCCl)cc32)c(OC)c1 [10719/G04]  −8.2%
68. Cc1c(Br)ccc2c1C(=Cc1coc3ccc([N+](=O)[O-])cc3c1=O)C(=O)N2 [10731/C07]  −11.6%

From patent US7202265B2, “Indolinone combinatorial libraries and related products and methods for the treatment of disease” (Sugen, Inc., priority 1997, dated 2007)
